Results taken from patent US5541186A, “Sulfonylaminopyrimidines” (Hoffmann-La Roche Inc., priority 1993, dated 1996).
pEC50, pIC50: −log10 of the molar value.

Assays:
[1] = test system: endothelin-induced contractions in isolated rat aorta rings; assay: Inhibition of endothelin-induced contractions in isolated rat aorta rings; format: cell-based, rat (adult Wistar-Kyoto); settings: endothelin-1, no antagonist; half-maximum contraction; read-out: EC50 of endothelin in the absence of test compounds
Procedure: II. Inhibition of endothelin-induced contractions in isolated rat aorta rings
Rings with a length of 5 mm were cut out from the thorax aorta of adult Wistar-Kyoto rats. The endothelium was removed by lightly rubbing the internal surface. Each ring was immersed at 37° C. in 10 ml of Krebs-Henseleit solution in an isolated bath while gassing with 95% O2 and 5% CO2. The isometric stretching of the tings was measured. The rings were stretched to a pre-tension of 3 g. After incubation for 10 minutes with the test compound or vehicle cumulative dosages of endothelin-1 were added. The activity of the test compound was ascertained by the observed shift to the right of the dosage-activity curve of endothelin-1 in the presence of different concentrations of antagonist. This shift to the right (or "dose ratio", DR) corresponds to the quotient from the EC50 values of endothelin-1 in the presence and in the absence of antagonist, with the EC50 value denoting the endothelin concentration required for a half-maximum contraction.
The corresponding PA2 value, which is a measure of the activity of the test compound, was calculated using a computer programme according to the following equation from the "dose ratio" DR for each individual dosage-activity curve.
pA2 =log(DR-1)-log(antagonist-concentration)
The EC50 of endothelin in the absence of test compounds is 0.3 nM.

[2] = molecular target: T1, human ETA receptors (Homo sapiens, UniProt P25101); assay: Inhibition of endothelin binding to recombinant ETA receptors; settings: 125I-endothelin 20 pM; 20° C. for 2 hours or 4° C. for 24 hours; baculovirus-insect cell membranes; read-out: IC50 (concentration required to inhibit 50% of the specific binding of 125I-endothelin)
T1 construct: made in house
T1 sequence (P25101 21-427): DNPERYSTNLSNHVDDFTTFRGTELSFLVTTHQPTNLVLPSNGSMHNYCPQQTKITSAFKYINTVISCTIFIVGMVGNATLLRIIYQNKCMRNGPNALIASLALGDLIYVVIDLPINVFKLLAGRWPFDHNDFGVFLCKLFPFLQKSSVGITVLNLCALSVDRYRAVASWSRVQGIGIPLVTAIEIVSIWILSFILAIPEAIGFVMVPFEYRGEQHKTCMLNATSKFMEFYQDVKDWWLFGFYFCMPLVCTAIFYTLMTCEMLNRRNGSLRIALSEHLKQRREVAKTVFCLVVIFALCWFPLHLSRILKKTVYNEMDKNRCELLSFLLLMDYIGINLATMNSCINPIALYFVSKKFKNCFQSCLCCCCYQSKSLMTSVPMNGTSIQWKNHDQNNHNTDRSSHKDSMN
Procedure: I: Inhibition of endothelin binding to recombinant ETA receptors
A cDNA coding for human ETA receptors of human placenta was cloned (M. Adachi, Y.-Y. Yang, Y. Furuichi and C. Miyamoto, BBRC 180, 1265-1272) and expressed in the baculovirus-insect cell system. Baculovirus-infected insect cells from a 23 l fermenter are centrifuged off (3000×g, 15 minutes, 4° C.) 60 hours after the infection, re-suspended in Tris buffer (5 mM, pH 7.4, 1 mM MgCl2) and again centrifuged. After a further re-suspension and centrifugation the cells are suspended in 800 ml of the same buffer and […] at -120° C. The cells disintegrate when the suspension in this hypotonic buffer mixture is thawed. After a repeated freeze-drying/thawing cycle the suspension is homogenized and centrifuged (25000 ×g, 15 minutes, 4° C.). After suspension in Tris buffer (75 mM, pH 7.4, 25 mM MgCl2, 250 mM saccharose) 1 ml aliquots (protein content about 3.5 mg/ml) are stored at -85° C.
For the binding assay, the […] membrane preparations are thawed and, after centrifugation at 20° C. and 25000 g for 10 minutes, re-suspended in assay buffer (50 mM Tris buffer, pH 7.4, containing 25 mM MnCl2, 1 mM EDTA and 0.5% bovine serum albumin). […] of this membrane suspension containing […] of protein are incubated with […] of ^125 I-endothelin (specific activity 2200 Ci/mMol) in assay buffer (25000 cpm, final concentration 20 pM) and […] of assay buffer containing varying concentrations of test compound. The incubation is carried out at 20° C. for 2 hours or at 4° C. for 24 hours. The separation of free and membrane-bound radio-ligands is carried out by filtration over a glass fiber filter.
The inhibitory activity of compounds of formula I determined in this test procedure is given in Table 1 as the IC50, i.e. as the concentration […] which is required to inhibit 50% of the specific binding of ^125 I-endothelin.

[3] = test system: "stroke-prone", spontaneously hypertensive rats; assay: In vivo blood pressure in pathophysiologically relevant rat model (telemetry); settings: 30 mg/kg in gum arabic, by probe
Procedure: A telemetric system (PA-C40 implant) was implanted into "stroke-prone", spontaneously hypertensive rats under anaesthesia in order that the arterial blood pressure and the heart rate could be measured continuously. The animals were left to recover for 2 weeks after the operation.
The corresponding test compound (30 mg/kg in gum arabic) was finally administered using a probe and the blood pressure was registered continuously. It became evident that compounds of formula I caused a fall in blood pressure, the administration of gum arabic alone (placebo control) having no significant effect on the blood pressure.

“endothelin: endothelin-1, agonist added in cumulative dosages to the rat aorta rings” showed a pEC50 [1] of 9.52.
COc1ccc(S(=O)(=O)Nc2ncnc(OCCOC(=O)Nc3ccccn3)c2Oc2ccccc2OC)cc1CCC(=O)N1CCOCC1 [Example 120, pyridin-2-ylcarbamic acid 2-[6-[4-methoxy-3-(3-morpholin-4-yl-3-oxo-propyl)-phenylsulfonylamino]-5-(2-methoxy-phenoxy)-pyrimidin-4-yloxy]-ethyl ester] showed a pIC50 [2] of 8.15.
COc1ccccc1Oc1c(NS(=O)(=O)c2ccc(C(C)(C)C)cc2)nc(N2CCOCC2)nc1OCCOC(=O)Nc1ccco1 [Example 75, furan-2-ylcarbamicacid 2-[6-(4-tert-butyl-phenylsulfonylamino)-5-(2-methoxy-phenoxy)-2-morpholin-4-yl-pyrimidin-4-yloxy]-ethyl ester] showed a pIC50 [2] of 8.52.
Compound COc1ccc(Cl)c(Oc2c(NS(=O)(=O)c3ccc4c(c3)OCO4)ncnc2OCCOC(=O)OCc2ccccn2)c1 [Example 140, carboxylic acid 2-[6-(1,3-benzodioxol-5-ylsulfonylamino)-5-(2-chloro-5-methoxy-phenoxy)-pyrimidin-4-yloxy]-ethyl ester pyridin-2-ylmethyl ester] has a pIC50 [2] of 8.05.
In the case of COc1ccccc1Oc1c(NS(=O)(=O)c2ccc(C(C)(C)C)cc2)nc(-c2ncccn2)nc1OCCOC(=O)Nc1ccccn1 [Example 70, pyridin-2-ylcarbamic acid 2-[6-(4-tert-butyl-phenylsulfonylamino)-5-(2-methoxy-phenoxy)-2,2'-bipyrimidin-4-yloxy]-ethyl ester], the “% Decrease in the average arterial blood pressure (mm Hg)” value [3] was 30% and the pIC50 [2] was 8.22.
COCCc1nc(NS(=O)(=O)c2ccc3c(c2)OCO3)c(Oc2cc(OC)ccc2Cl)c(OCCOC(=O)Nc2ccccn2)n1 [Example 10, pyridine-2-ylcarbamic acid 2-[6-(1,3-benzodioxol-5-ylsulfonylamino)-5-(2-chloro-5-methoxy-phenoxy)-2-(2-methoxyethyl)-pyrimidin-4-yloxy]-ethyl ester] gave a pIC50 [2] of 9.00.
With COc1ccc(Cl)c(Oc2c(NS(=O)(=O)c3ccc(C(C)(C)C)cc3)ncnc2OCCNC(=O)Nc2ccncc2)c1 [Example 134] the pIC50 [2] was 7.36.
